Experimental data as given in patent publication US20240122932A1, “Methods of Treating B-Cell Malignancy Using Bcl-2 Inhibitor” (BeiGene Switzerland GmbH, priority 2021, published 2024).
Entries after “also recorded” stand apart in the source; their conditions may differ.

Legend:
[1] = test system: patients with R/R B-cell malignancies; experiment: phase 1 clinical study: efficacy (response, ALC, SPD); format: in vivo, human
Procedure: A phase 1 study (dose escalation and safety expansion) to determine safety, tolerability, maximum tolerated dose ([…]), and recommended phase 2 dose (RP2D) of Compound 1 in patients with R/R B-cell malignancies was conducted. (Table 6-1A).
Part 1 Monotherapy Ramp-Up Schedule and Dose Finding • 1) Cohort 1A: Cohort 1A consists of patients with relapsed/refractory B-cell non-Hodgkin lymphoma (R/R B-cell NHL) excluding mantle cell lymphoma (MCL). These patients are expected to be at low risk of tumor lysis syndrome (low TLS risk), and are treated with a short ramp-up schedule reaching target dose on Day 3. Patients in this cohort receive escalating doses of Compound 1 monotherapy: 40 mg, 80 mg, 160 mg, 320 mg, and 640 mg (unless adjusted by Safety Monitoring Committee [SMC] recommendation). • 2) Cohort 1B is opened, when ≥1 tolerable dose level of Cohort 1A was determined. It consists of patients with low-tumor-burden R/R CLL/SLL. This cohort pursues dose finding, including evaluation of both ramp-up schedule and target dose. Patients increase the ramp-up dose weekly until the target dose for the cohort is reached. The ramp-up steps is 1 mg, 2 mg, 5 mg, 10 mg, 20 mg, 40 mg, 80 mg, 160 mg, 320 mg, and 640 mg (unless adjusted by SMC recommendation). […]. • 3) Cohort 1C: This Cohort consists of patients with high-tumor-burden R/R chronic lymphocytic leukemia/small lymphocytic lymphoma (R/R CLL/SLL). This cohort will not be dosed until the RP2D for Cohort 1B is established. The objective of this cohort is to confirm, in patients with high-tumor-burden CLL/SLL, the safety of the monotherapy ramp-up schedule and RP2D established in patients with low-tumor-burden CLL/SLL. • 4) Cohort 1D: This Cohort consists of patients with R/R MCL. This cohort will not be dosed until the RP2D for Cohort 1B is established. The objective of this cohort is to confirm, in patients with R/R MCL, the safety of the monotherapy ramp-up schedule and RP2D established in patients with low tumor-burden CLL/SLL. • Cohort 1D′: This Cohort consists of patients with R/R MCL. And, the target dosage are 160 and 320 mg. • 5) Cohort 1E: This Cohort consists of patients with R/R waldenstrom macroglobulinemia (R/R WM). This cohort will not be dosed until the RP2D for Cohort 1B is established. The objective of this cohort is to confirm, in patients with R/R WM, the safety of the monotherapy ramp-up schedule and RP2D established in patients with low tumor-burden CLL/SLL.
The study also includes dose escalation and expansion cohorts for the combination of Compound 1 and Bruton tyrosine kinase (BTK) inhibitor Zanubrutinib in patients with selected B-cell malignancy, such as CLL/SLL and mantle cell lymphoma (MCL). (Table 6-2A). Patients in the combination therapy cohorts receive Zanubrutinib 320 mg daily (160 mg twice a day [BID] or 320 mg once a day [QD]) beginning 8-12 weeks before Compound 1 is introduced. And, the corresponding dose-escalation and expansion are conducted in Part 3 and Part 4):
Dose finding is pursued in Patients with R/R CLL/SLL or R/R MCL who are Bel-2-inhibitor naive and have not progressed on a BTK inhibitor, including evaluation of ramp-up schedule and target dose of Compound 1 when used in combination with Zanubrutinib. The Compound 1 dose vary but the Zanubrutinib dose is fixed at 320 mg/day (160 mg twice daily or 320 mg once daily). The ramp-up dose increases weekly until the target dose for the cohort is reached. The ramp-up steps for Compound 1 are 1 mg, 2 mg, 5 mg, 10 mg, 20 mg, 40 mg, 80 mg, 160 mg, 320 mg, and 640 mg (unless adjusted by SMC recommendation).
In all Cohorts of the phase 1 study, Compound 1 is orally administrated once daily (QD). […]

[2] = test system: RS4;11 Bcl-2G101V KI acute lymphoblastic leukemia (ALL) subcutaneous xenograft; experiment: RS4;11 Bcl-2G101V KI ALL subcutaneous xenograft model; format: in vivo, NCG mice
Procedure: The RS4;11 Bcl-2G101V KI cells are of acute lymphoblastic leukemia (ALL) origin and were screened in house. Cells were grown in RPMI 1640 medium (Corning, Cat #10-040-CVR), supplemented with 10% (v/v) fetal bovine serum (Gibco, Cat #10099-141C), and 100 μg/mL of penicillin and streptomycin (Gibco, Cat #15140-122). […] Five to six-week-old female NCG mice were supplied by GemPharmatech Co., Ltd, Jiangsu, China. All animals were maintained under specific pathogen free (SPF) “full barrier” condition with free access to food and water. Mice were group-housed under a 12 h light:dark cycle (lights on at 08:00 h), at a temperature of 20-26° C. and 37-62% humidity in WC cages (Lingyunboji (Beijing) Technology Co., Ltd.). Mice were fed with complete granulated feed with Co60 radio sterilization (Beijing Ke Ao Xie Li Feed Co., Ltd.).
Re-suspended cells were placed on ice prior to inoculation. The right front flank region of each mouse was cleaned with 75% ethanol prior to cell inoculation. Each animal was injected subcutaneously with 1×10^7 cells in 200 μL of cell suspension in the right front flank via a 26-gauge needle. After implantation, primary tumor volume was measured in two dimensions using a caliper.
Animals were randomly assigned into 7 groups with 8 mice per group according to body weight and tumor volume (around 300 mm^3). The groups consisted of vehicle group, 15, 50 and 100 mg/kg of venetoclax with QD dosing, 15, 50 and 100 mg/kg of Compound 1 with QD dosing. Treatments were administered by oral gavage (p.o.) in a volume of […]. Body weight was assessed immediately before dosing and volume dosed was adjusted accordingly.
Individual body weight was recorded twice weekly, with mice being monitored daily for clinical signs of toxicity for the duration of the study. Mice were euthanized using carbon dioxide when their tumor volume reached 2,000 mm^3, the tumor was ulcerated, or body weight loss exceeded 20%.
Tumor volume was calculated using the formula: V=0.5×(a×b^2) where a and b are the long and short diameters of the tumor, respectively.

Row | Structure (SMILES) | early response in CLL ([1]; CLL/SLL monotherapy, 36-patient data, 80-mg dose level, del (17p) CLL) | patients achieving a response ([1]; NHL, monotherapy, 36-patient data, about 5 months of treatment duration, including 1 CR) [patients] | patients achieving partial response with lymphocytosis (PR-L) or better ([1]; monotherapy, R/R CLL/SLL, four of 6 patients, at either 80 or 160 mg) [%] | patients responded ([1]; monotherapy, R/R NHL, two of 20 patients, 1 PR at 160 mg and 1 CR at 320 mg) [%] | patients with minor response ([1]; monotherapy, R/R WM, one of 2 patients, at 80 mg) [%] | reduction in SPD from baseline ([1]; monotherapy, patients with R/R NHL) | reduction in absolute lymphocyte count (ALC) ([1]; patients with CLL during ramp-up, monotherapy and combination therapy, seen at dose levels as low as 1 mg) | blood MRD (minimal residual disease) negativity ([1]; patients with CLL, monotherapy or combination with Zanubrutinib) | Mean Tumor Volume (Day 10) (mm^3 ± SEM) ([2]; 15 mg/kg QD × 10 p.o.) [mm^3] | TGI (Day 10) ([2]; 15 mg/kg QD × 10 p.o.) [%] | Mean Tumor Volume (Day 10) (mm^3 ± SEM) ([2]; 50 mg/kg QD × 10 p.o.) [mm^3] | TGI (Day 10) ([2]; 50 mg/kg QD × 10 p.o.) [%] | Mean Tumor Volume (Day 10) (mm^3 ± SEM) ([2]; 100 mg/kg QD × 10 p.o.) [mm^3] | TGI (Day 10) ([2]; 100 mg/kg QD × 10 p.o.) [%]
1 | CC(C)c1ccccc1[C@@H]1CCCN1C1CC2(CCN(c3ccc(C(=O)NS(=O)(=O)c4ccc(NCC5CCC(C)(O)CC5)c([N+](=O)[O-])c4)c(Oc4cnc5[nH]ccc5c4)c3)CC2)C1 (stereo partly drawn) [Compound 1, 2-((1H-pyrrolo[2,3-b]pyridin-5-yl)oxy)-N-((4-((((1r,4r)-4-hydroxy-4-methylcyclohexyl)methyl)amino)-3-nitrophenyl)sulfonyl)-4-(2-((S)-2-(2-isopropylphenyl)pyrrolidin-1-yl)-7-azaspiro[3.5]nonan-7-yl)benzamide] | 1 of 4 patients with CLL reached first response assessment and achieved partial response | 2 | 67 | 10 | 50 | significant reduction in SPD form baseline were seen in most patients; also recorded: significant reduction in SPD from baseline were seen in most patients | significant reduction in absolute lymphocyte count (ALC) was noted among all patients with CLL during ramp-up | negativity was observed in 160 mg cohorts after 6 months treatment but not in 40 mg and 80 mg cohorts |  |  |  |  |  | 
2 | CC1(C)CCC(CN2CCN(c3ccc(C(=O)NS(=O)(=O)c4ccc(NCC5CCOCC5)c([N+](=O)[O-])c4)c(Oc4cnc5[nH]ccc5c4)c3)CC2)=C(c2ccc(Cl)cc2)C1 [Venetoclax, reference compound] |  |  |  |  |  |  |  |  | 976.6 ± 64.0 | 44 | 711.8 ± 49.7 | 65 | 530.4 ± 75.4 | 80
